# Experimental data reported in patent US10799605B2 (3B PHARMACEUTICALS GMBH, priority 2014, dated 2020).
# Read-outs that look alike come from different tables or passages of the source.
# How the values were obtained:
# [1] = target: NTR1 (Homo sapiens (Human), UniProt P30989); test: Functional Ca2+ mobilisation assay (example part II); type: cell-based; conditions: antagonist assay
# Summary of the method: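 HT29 or NTR1-expressing HEK293 cells loaded with Ca5 dye for 1 h at 37 °C in buffer at pH 7.4, and fluorescence recorded for about 90 s after addition. EC50 derived from agonist serial dilutions; IC50 from antagonists pre-incubated 30 min before an EC80 agonist challenge.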
# [2] = Plasma protein binding assay, human; type: in vitro ADME; conditions: plasma proteins, 4 h at 37° C., equilibrium dialysis, read-out: % bound [human]
# Text: A drug's efficiency may be affected by the degree to which it binds to the proteins within blood plasma. A drug in blood exists in two forms: bound and unbound. Depending on a specific drug's affinity for plasma protein, a proportion of the drug may become bound to plasma proteins, with the remainder being unbound. […] It is also the fraction that may be metabolized and/or excreted. Protein binding can influence the drug's biological half-life in the body. The bound portion may act as a reservoir or depot from which the drug is slowly released as the unbound form. In order to determine the binding characteristics of the compounds of the present invention as listed in the following Table to human or mouse plasma protein, respectively, a plasma protein binding assay was carried out. All compounds have a plasma protein binding that is appropriate for diagnostic, therapeutic and theranostic use of these compounds according to the present invention.
# The binding of test substances to human and murine plasma proteins was tested by Cerep (Celle l'Evescault, France; Catalog reference 2194 [human] and 2223 [mouse]) according to Banker et al., J. Pharm. Sci., 2003, 92, 967-974. Test compounds were incubated with human or murine plasma proteins for 4 h at 37° C. Subsequently, the fraction of compound bound to plasma proteins was determined by equilibrium dialysis and HPLC-MS/MS detection. […]
# [3] = target: A3 (h) (Homo sapiens (Human), UniProt P0DMS8); test: ExpresSProfile: adenosine receptor 3, agonist radioligand; type: binding; conditions: Test Concentration 1.0E−05 M
# Sequence of A3 (h) (P0DMS8 whole entry): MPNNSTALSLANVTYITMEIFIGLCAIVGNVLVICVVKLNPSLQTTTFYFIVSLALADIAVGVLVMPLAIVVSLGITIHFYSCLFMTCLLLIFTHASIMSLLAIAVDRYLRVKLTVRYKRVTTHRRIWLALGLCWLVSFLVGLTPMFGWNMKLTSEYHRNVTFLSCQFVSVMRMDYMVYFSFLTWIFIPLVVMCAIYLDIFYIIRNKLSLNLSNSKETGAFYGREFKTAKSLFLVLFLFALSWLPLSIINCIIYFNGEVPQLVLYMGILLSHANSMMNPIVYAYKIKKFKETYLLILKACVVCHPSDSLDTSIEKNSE
# [4] = target: CCR1 (h) (Homo sapiens (Human), UniProt P32246); test: ExpresSProfile: C-C chemokine receptor type 1, agonist radioligand; type: binding; conditions: Test Concentration 1.0E−05 M
# Sequence of CCR1 (h) (P32246 whole entry): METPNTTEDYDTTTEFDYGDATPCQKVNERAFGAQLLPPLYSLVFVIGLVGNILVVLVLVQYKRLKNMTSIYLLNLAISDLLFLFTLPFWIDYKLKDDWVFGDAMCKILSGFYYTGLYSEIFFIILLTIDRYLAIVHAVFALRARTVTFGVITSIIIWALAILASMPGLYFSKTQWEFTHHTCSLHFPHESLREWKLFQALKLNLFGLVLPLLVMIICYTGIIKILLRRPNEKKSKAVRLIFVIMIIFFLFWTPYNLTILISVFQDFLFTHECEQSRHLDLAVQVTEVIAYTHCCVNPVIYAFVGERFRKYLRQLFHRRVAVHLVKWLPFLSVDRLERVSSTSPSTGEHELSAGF
# [5] = target: H1 (h) (Homo sapiens (Human), UniProt P35367); test: ExpresSProfile: histamine receptor 1, antagonist radioligand; type: binding; conditions: Test Concentration 1.0E−05 M
# Sequence of H1 (h) (P35367 whole entry): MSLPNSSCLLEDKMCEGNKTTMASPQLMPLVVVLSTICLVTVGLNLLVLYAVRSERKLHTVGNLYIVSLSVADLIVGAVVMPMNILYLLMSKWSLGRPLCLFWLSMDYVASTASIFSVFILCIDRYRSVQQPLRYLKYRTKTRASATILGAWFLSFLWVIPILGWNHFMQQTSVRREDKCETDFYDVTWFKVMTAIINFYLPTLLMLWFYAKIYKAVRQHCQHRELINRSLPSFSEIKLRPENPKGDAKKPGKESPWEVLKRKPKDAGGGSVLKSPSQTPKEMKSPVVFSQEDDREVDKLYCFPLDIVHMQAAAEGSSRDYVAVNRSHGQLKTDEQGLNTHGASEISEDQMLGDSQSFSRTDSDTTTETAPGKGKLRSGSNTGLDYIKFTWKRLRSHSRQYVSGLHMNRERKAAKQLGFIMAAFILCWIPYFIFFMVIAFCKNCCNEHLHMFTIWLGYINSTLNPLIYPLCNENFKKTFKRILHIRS
# [6] = target: Y2 (h) (Homo sapiens (Human), UniProt P49146); test: ExpresSProfile: neuropeptide Y receptor 2, agonist radioligand; type: binding; conditions: Test Concentration 1.0E−05 M
# Sequence of Y2 (h) (P49146 whole entry): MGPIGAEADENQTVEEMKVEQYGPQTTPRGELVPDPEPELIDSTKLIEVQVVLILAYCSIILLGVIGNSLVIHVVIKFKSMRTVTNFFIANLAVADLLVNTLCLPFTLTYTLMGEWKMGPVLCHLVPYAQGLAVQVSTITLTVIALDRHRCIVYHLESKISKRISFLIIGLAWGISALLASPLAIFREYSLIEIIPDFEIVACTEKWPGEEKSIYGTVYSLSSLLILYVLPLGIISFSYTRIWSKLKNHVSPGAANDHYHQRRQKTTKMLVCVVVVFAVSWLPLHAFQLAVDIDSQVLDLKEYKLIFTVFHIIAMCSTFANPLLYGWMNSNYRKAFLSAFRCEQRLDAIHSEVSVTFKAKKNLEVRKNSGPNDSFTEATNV
# [7] = target: 5-HT3 (h) (Homo sapiens (Human), UniProt P46098); test: ExpresSProfile: 5-hydroxytryptamine channel 3, antagonist radioligand; type: binding; conditions: Test Concentration 1.0E−05 M
# Sequence of 5-HT3 (h) (P46098 24-478): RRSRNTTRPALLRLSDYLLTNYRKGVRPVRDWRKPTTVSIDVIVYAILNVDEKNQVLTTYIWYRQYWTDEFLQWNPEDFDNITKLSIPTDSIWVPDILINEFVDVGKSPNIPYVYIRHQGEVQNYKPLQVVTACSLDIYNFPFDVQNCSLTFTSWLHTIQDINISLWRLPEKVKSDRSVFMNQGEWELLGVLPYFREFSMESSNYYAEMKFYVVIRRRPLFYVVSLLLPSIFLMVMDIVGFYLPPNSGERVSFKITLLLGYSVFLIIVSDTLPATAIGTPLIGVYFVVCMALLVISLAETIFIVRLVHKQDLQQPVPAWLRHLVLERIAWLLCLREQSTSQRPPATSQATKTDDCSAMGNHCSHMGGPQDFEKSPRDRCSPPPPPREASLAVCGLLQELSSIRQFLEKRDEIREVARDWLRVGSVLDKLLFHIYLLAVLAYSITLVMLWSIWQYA
# [8] = target: 5-HT6 (h) (Homo sapiens (Human), UniProt P50406); test: ExpresSProfile: 5-hydroxytryptamine receptor 6, agonist radioligand; type: binding; conditions: Test Concentration 1.0E−05 M
# Sequence of 5-HT6 (h) (P50406 whole entry): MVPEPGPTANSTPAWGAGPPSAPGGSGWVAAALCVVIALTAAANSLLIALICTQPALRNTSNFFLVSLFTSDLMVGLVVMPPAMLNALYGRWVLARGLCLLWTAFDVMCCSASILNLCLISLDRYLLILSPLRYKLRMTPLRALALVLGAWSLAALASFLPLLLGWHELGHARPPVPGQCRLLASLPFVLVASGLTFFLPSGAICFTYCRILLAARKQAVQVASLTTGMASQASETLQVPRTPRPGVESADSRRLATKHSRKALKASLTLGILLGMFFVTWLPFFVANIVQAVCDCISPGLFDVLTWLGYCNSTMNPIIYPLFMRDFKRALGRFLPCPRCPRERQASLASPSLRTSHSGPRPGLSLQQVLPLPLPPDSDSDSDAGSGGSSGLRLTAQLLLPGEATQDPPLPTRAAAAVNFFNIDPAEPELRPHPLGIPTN
# [9] = read-out: % Inhibition of Control Specific Binding
# [10] = read-out: % of Control Specific Binding 1st
# [11] = read-out: % of Control Specific Binding 2nd
# [12] = read-out: % of Control Specific Binding Mean
# Sequence of NTR1 (P30989 whole entry): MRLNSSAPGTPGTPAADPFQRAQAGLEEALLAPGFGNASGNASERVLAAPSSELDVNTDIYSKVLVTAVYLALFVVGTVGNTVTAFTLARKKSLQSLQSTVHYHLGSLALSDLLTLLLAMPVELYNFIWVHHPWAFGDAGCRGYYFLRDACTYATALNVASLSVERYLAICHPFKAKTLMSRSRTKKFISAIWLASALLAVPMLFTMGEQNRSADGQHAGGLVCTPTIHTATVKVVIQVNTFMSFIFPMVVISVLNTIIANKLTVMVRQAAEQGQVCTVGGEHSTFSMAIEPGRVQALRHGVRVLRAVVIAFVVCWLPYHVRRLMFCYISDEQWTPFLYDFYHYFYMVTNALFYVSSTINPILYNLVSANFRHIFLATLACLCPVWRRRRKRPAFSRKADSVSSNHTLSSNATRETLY
smiles,measurement,setting,value
"COc1cccc(OC)c1-c1cc(C(=O)NC2(C(=O)O)C3CC4CC(C3)CC2C4)nn1-c1ccc(C(=O)N(C)CCCN(C)CCCN(C)C(=O)CN2CCN(CC(=O)O)CCN(CC(=O)O)CCN(CC(=O)O)CC2)cc1C(C)C (centres unmarked) [(IIIa), 2-{[1-{4-[(3-{[3-(DOTA-methyl-amino)-propyl]-methyl-amino}-propyl)-methyl-carbamoyl]-2-isopropyl-phenyl}-5-(2,6-dimethoxy-phenyl)-1H-pyrazole-3-carbonyl]-amino}-adamantane-2-carboxylic acid]",IC50,[1],20 nM
same,fraction unbound at 4 h,[2],0.01
same,inhibition at 10 µM,[3]; [9],-41%
same,remaining activity at 10 µM,[3]; [10],129%
same,remaining activity at 10 µM,[3]; [11],154%
same,remaining activity at 10 µM,[3]; [12],141%
same,inhibition at 10 µM,[4]; [9],-6%
same,remaining activity at 10 µM,[4]; [10],103%
same,remaining activity at 10 µM,[4]; [11],109%
same,remaining activity at 10 µM,[4]; [12],106%
same,inhibition at 10 µM,[5]; [9],-12%
same,remaining activity at 10 µM,[5]; [10],121%
same,remaining activity at 10 µM,[5]; [11],103%
same,remaining activity at 10 µM,[5]; [12],112%
same,inhibition at 10 µM,[6]; [9],-23%
same,remaining activity at 10 µM,[6]; [10],130%
same,remaining activity at 10 µM,[6]; [11],116%
same,remaining activity at 10 µM,[6]; [12],123%
same,inhibition at 10 µM,[7]; [9],-8%
same,remaining activity at 10 µM,[7]; [10],108%
same,remaining activity at 10 µM,[7]; [11],108%
same,remaining activity at 10 µM,[7]; [12],108%
same,inhibition at 10 µM,[8]; [9],-6%
same,remaining activity at 10 µM,[8]; [10],106%
same,remaining activity at 10 µM,[8]; [11],105%
same,remaining activity at 10 µM,[8]; [12],106%
